The text below walks through data of a melting point compilation (Tetko et al.; mined from patent text by program, amines drawn as free bases though some values may be those of a salt).

The structures appear in SMILES notation.

As usually defined, the melting point is the temperature, or range, at which the solid turns liquid.

Take `CCC(OC(=O)c1ccccc1)c1nc2c(C(F)(F)F)cccc2c(O)c1C(=O)Nc1nccs1` (stereo unspecified): the melting point was determined as 230 °C. Turning to `Cc1c(NC(=O)c2ccc(-c3ccc(F)cc3)cc2)ccc2cc(CN3C(C)CCCC3C)cnc12` (stereo unspecified), the melting point lay in the range of 167 to 168 °C. Take `CC(O)c1cc(-c2ccc(Cl)cc2)no1` (stereo unspecified): the melting point was in the range of 141 to 143 °C. As for `CCOC(=O)c1cnc(Nc2cc(OC)c(OC)c(OC)c2)nc1-c1ccccc1`, the melting point fell in the range of 64 to 65 °C. With `N#CC1(c2ccc(Cl)cc2)C2CC3CC(C2)CC1C3` (stereo unspecified), the melting point lay in the range of 132 to 133 °C. The compound `O=C(N[C@H](Cc1ccc(Cl)c(OC(F)(F)C(F)F)c1)[C@@H](O)c1ccc(F)cc1)c1ccc(F)c2ccccc12` (racemic) had a melting point of 206 to 207 °C. As to `O=C1CCC(N2C(=O)c3cccc(OCc4ccc(CN5CCc6ncccc6C5)cc4)c3C2=O)C(=O)N1` (stereo unspecified), the melting point was in the range of 165 to 167 °C.

For the compound `CN(C)c1ccc(C2(c3ccc(N(C)C)cc3N(C)C)OC(=O)c3ccccc32)c(N(C)C)c1`, the melting point was in the range of 186 to 188 °C.

`CCOC(=O)c1cccc(-c2ccc(F)c3cc(CO)sc23)c1` returned a melting point of 89 to 90 °C. The figure for `CNC(=O)c1ccc(-c2ccc3nnn(Cc4ccc5ncccc5c4)c3n2)cc1F` is 212 to 214 °C. With `CCCSc1cc(OCc2ccc(Cl)cc2)ccc1C`, the melting point lay within 35 to 36 °C. As to `C=CCNC(=O)C(C)N` (stereo unspecified), the melting point lay in the range of 77.5 to 78 °C. `C[C@H]1C=CC(S(=O)(=O)c2ccccc2)=C[C@H](C)[C@H]1O[Si](C)(C)C(C)(C)C` came in with a melting point of 81.6 to 83.6 °C. In turn, `Cc1nnc(C(=O)CCCCCCOc2ccc(OCc3ccccc3)cc2)o1` displayed a melting point of 118 to 120 °C. The compound `CCCC(=O)c1cnc2c(C)cccc2c1Nc1ccccc1F` showed a melting point of 109 to 111 °C. `CCCCc1c(C(=O)O)ccc2ccc(OC)cc12` registered a melting point of 123 to 125 °C.

In the case of `Cn1cc(C2=C(c3c4n(c5ccccc35)CCC(COS(C)(=O)=O)C4)C(=O)NC2=O)c2ccccc21` (stereo unspecified), the melting point was 259 to 261 °C. The figure for `COc1cc2cc(F)cnc2cc1F` is 98 °C.

Compound `CCCOc1ccc(OC)cc1-c1ncc(C(N)=O)c(=O)[nH]1` gave a melting point of 206 to 207 °C.

Consider `COc1ccc(C2c3cc(OC)c(OC)cc3CCN2C(=O)NCCN(C(C)C)C(C)C)cc1OC` (stereo unspecified), for which the melting point was in the range of 114 to 115 °C. `CCNC(=O)OCCOc1ccc(Oc2ccc(F)cc2)cc1` came in with a melting point of 60 to 62 °C. Regarding `O=C(O)C1C2C=CC(C2)C1C(F)(F)F` (stereo unspecified), the melting point fell in the range of 85 to 90 °C. For the compound `CNC(=O)COc1ccc(C(=O)CN2CCN(c3ccncc3)CC2)cc1`, the melting point was in the range of 169 to 171 °C. In turn, `O=C(NCC1CCCO1)c1cccc(-c2ccc3c(c2)C(c2cc(Cl)ccc2Cl)CC3)c1` (stereo unspecified) returned a melting point of 122 °C.

As to `Clc1cc(Br)ccc1OCc1ccccc1`, the melting point lay within 59.5 to 60 °C.

In the case of `CC(C)C[C@H](NC(=O)OC(C)(C)C)C(=O)NCCCC(c1ccc(F)cc1)c1ccc(F)cc1`, the melting point lay in the range of 50 to 55 °C. With `CC(Oc1ccc2oc3cc(Cl)ccc3c2c1)C(=O)O` (stereo unspecified), the melting point lay in the range of 170 to 172 °C. In turn, `CCOC(=O)CN1C(=O)C(=C(C)C)SC1=Nc1cc(-n2c(=O)cc(C(F)(F)F)n(C)c2=O)c(F)cc1Cl` returned a melting point of 67 to 80 °C. For the compound `COc1ccc(CNc2ccccc2C)cc1O`, the melting point lay in the range of 104 to 105 °C. Compound `NCc1sc(C(c2ccc(Cl)cc2)c2c(Cl)cc(-n3ncc(=O)[nH]c3=O)cc2Cl)nc1-c1ccccc1` (stereo unspecified) registered a melting point of 170 °C. Compound `CCC(=O)C(CCCOc1ccc(OCCCc2c(CC)n[nH]c2CC)cc1)C(=O)CC` registered a melting point of 135 to 136 °C. In the case of `CCOC(=O)CCc1ccc(CCNS(=O)(=O)CCc2ccc(Cl)cc2)cc1` it was 77 to 78 °C.

Turning to `COc1ccc(-n2nc(C(F)(F)F)cc2-c2ccc(S(C)(=O)=O)cc2)cc1Br`, the melting point lay within 164 to 166 °C. In the case of `CC(C)(C)c1cc(Oc2ccc(N)cc2)ccc1Oc1ccc(N)cc1`, the melting point lay within 129 to 130 °C. `CCCc1cc(Cl)c2sc(Cc3ccc(OC)cc3)c(C)c2c1O`: the melting point was in the range of 114 to 116 °C. In turn, `CCOC(Cc1ccc(OCCN(C)c2nc3ccccc3o2)cc1)C(=O)O` (stereo unspecified) had a melting point of 109 to 110 °C.

With `CN(C)C1CCCC1Cc1cccc(-c2cccc(N)n2)c1` (stereo unspecified), the melting point lay within 60 to 80 °C. The compound `CCCCCCCCCCCCCCCCSC(N)C(CN)C(=O)OC(C)(C)C` (stereo unspecified) displayed a melting point of 46 to 47 °C.

`O=C(O)CCC(CSc1nc2ccccc2s1)C(=O)O` (stereo unspecified) yielded a melting point of 152 to 154 °C. `CC(=O)CS(=O)(=O)c1cccc2ccccc12` yielded a melting point of 65 °C.

`Cc1sc(Cc2ccccc2)c(-c2ccc(-c3ccc(OC(Cc4ccccc4)C(=O)O)cc3)cc2)c1C` (stereo unspecified) yielded a melting point of 142 to 144 °C. `O=C(Nc1nccs1)c1c(C(F)F)nc2c(C(F)(F)F)cccc2c1O` gave a melting point of 226 °C.

`CCN(CC)c1ccc(C(=NCCO[N+](=O)[O-])NC#N)cn1`: the melting point stood at 119 °C.

On to `CN1C(=O)CC[C@]2(C)c3ccc(-c4ccc([N+](=O)[O-])cc4)cc3CC[C@@H]12`, for which the melting point is 59 to 60 °C. In turn, `CCCCCCCCCCCCNC(=O)c1cc(-c2cccc(C(F)(F)F)c2)c(OCC(=O)O)c(-c2cccc(C(F)(F)F)c2)c1` showed a melting point of 154 to 158 °C.

`Cc1cc2n[nH]c(=O)n2nc1-c1cccc([N+](=O)[O-])c1` returned a melting point of over 300 °C. As to `COc1c(Cl)ccc(-c2cc(N)c(Cl)c(C(=O)OCc3ccc(Cl)cc3Cl)n2)c1F`, the melting point was 165 to 168 °C. Take `COc1ccc2c(c1)[C@@H](O)[C@H](Br)CO2` (relative stereo): the melting point is 67 to 72 °C.

Take `O=C(Nc1cccc2c(=O)cc(C(=O)O)oc12)c1ccc2c(c1)CC(CCCc1ccccc1)O2` (stereo unspecified): the melting point was in the range of 184 to 185 °C. The figure for `N#Cc1ccc(CC(NC(=O)CC(NS(=O)(=O)c2ccc3ccccc3c2)c2ccccc2)C(=O)N2CCCC2)cc1` (stereo unspecified) is 195 to 200 °C; for `O=S(=O)(NCc1ccncc1)c1ccc(Br)s1` it is 159 °C.

In the case of `CC(O)CNc1nc(C2C(=O)Nc3ccc(Br)cc32)c2cn(C)nc2n1` (stereo unspecified), the melting point fell in the range of 298 to 301 °C. Turning to `CC(C)(C)CC(C)(C)c1ccc(C(=O)O)cc1`, the melting point fell in the range of 153 to 155 °C.

As for `Oc1ccc(-c2ccc3c(-c4ccccc4)c(O)ccc3c2)cc1`, the melting point lay within 142 to 146 °C. For `N#Cc1nc(N)nc(N)c1-c1ccc(Cl)cc1Cl`, the melting point was determined as 249 °C. `CCCCCS(=O)(=O)NC(=O)/C=C/c1c(C)cc(C)n1Cc1ccc(Cl)cc1Cl` came in with a melting point of 170 to 171 °C. For the compound `COc1ccc(-c2nc(CNC(C)=O)sc2-c2ccc(OC)cc2)cc1`, the melting point lay in the range of 138 to 141 °C. As to `CCOCc1nc2c(N)nc3ccccc3c2n1CC1(O)CCN(C)CC1`, the melting point is 198 °C. In the case of `N#Cc1[nH]c(Br)c([N+](=O)[O-])c1Br` it was 170 to 175 °C; in that of `NC(=O)c1nnn(Cc2ccc(Cl)c(C(=O)c3ccc(Cl)cc3)c2)c1N`, 189 to 192 °C.

The compound `Cc1cnc2cccc(Oc3cc(-c4ccc(C(F)(F)F)cc4)ncn3)c2n1` displayed a melting point of 139 to 141 °C. Compound `CCOc1ccc2[nH]c(=O)n(-c3ccc(OC)cc3)c2c1` had a melting point of 98 °C. Turning to `NNc1ccnc(-c2ccc([N+](=O)[O-])o2)n1`, the melting point lay within 220 to 222 °C. For `Cc1[nH]cnc1/C=C/C(=O)c1c(C)sc2ccccc12`, the melting point fell in the range of 154 to 156 °C.

Compound `COc1ccc(C)cc1NC(=O)Nc1ccc(N2CCN(C(=O)Nc3ccc(OCCO)cc3Cl)CC2)c(F)c1` yielded a melting point of 118 to 120 °C.

With `CCCCCCCCCCCCCCCCCCN(CCCCCCCCCCCCCCCCCC)c1ccc(C=Cc2ccc(S(C)(=O)=O)cc2)cc1`, the melting point was in the range of 75 to 76 °C. The compound `O=C1c2ccccc2C(=O)N1CCc1cn2ccccc2n1` yielded a melting point of 181 to 182 °C.

In the case of `COCCCCCNC(=O)C(c1ccccc1)c1ccccc1`, the melting point lay in the range of 74.2 to 75 °C. For the compound `COc1ccc(N2C(=O)CCNc3ccc(Cl)cc32)cc1`, the melting point was 198 to 199 °C. In the case of `Cc1cnc2c(NC(=O)c3c(Cl)cccc3Cl)cccc2c1N1CCN(C)C1=O`, the melting point was 288 °C. `COc1cc2c(NC3CCCC3)c(C#N)cnc2cc1F` displayed a melting point of 162 to 164 °C. Turning to `CCN(CC)CCNC(=O)c1ccc(S(N)(=O)=O)cc1`, the melting point fell in the range of 174 to 176 °C.

Turning to `CCc1ccc2nnc(C(=O)Oc3ccccc3)cc2c1`, the melting point was 143 to 145 °C. The figure for `CC(C)c1cc2nc(N)sc2cc1Sc1ccc(CCc2ccc(F)cc2)c(CCC2=C(O)CC(C(C)C)OC2=O)c1` (stereo unspecified) is 204 to 206 °C; for `CCn1c(=O)sc2cc(N3C[C@H](C(N)=O)OC3=O)ccc21` it is 211 to 212 °C. In the case of `CCCC(Cc1ccc(Cl)cc1)C1(S(=O)(=O)c2ccc(OC)cc2)SC(=O)NC1=O` (stereo unspecified), the melting point fell in the range of 172 to 174 °C.

Compound `COc1ccc(Cn2ncc3nc(O)nc(O)c32)cc1` gave a melting point of 288 to 292 °C. The figure for `COc1ccc(C2(CCN3CCC(C(N)=O)(c4ccccc4)CC3)CCN(C(=O)c3cc(OC)c(OC)c(OC)c3)C2)cc1OC` (stereo unspecified) is 60 to 62 °C; for `C=CCONC(=O)COc1cccc2c1c(C(=O)C(N)=O)c(CC)n2Cc1ccccc1` it is 175 to 177 °C; for `CC(=S)NCC1CN(c2ccc(N3CCC(=CC#N)C(F)C3)c(F)c2)C(=O)O1` (stereo unspecified) it is 137 to 138 °C. Take `CCc1nc(-c2ccc(N3CCN(C(=O)c4ccccc4C(F)(F)F)CC3)nn2)no1`: the melting point was found to be 204 °C. `CCOC(=O)c1ncn(-c2nccs2)c1Cl` showed a melting point of 128 to 131 °C.

`O=C(O)c1ccc(OC(F)=C(F)F)cc1` came in with a melting point of 139 to 140 °C. For `COCCOCCOc1ccc2cc(C(=O)O)[nH]c2c1`, the melting point is 99 to 102 °C. Regarding `CS(=O)(=O)c1ccc(C(=O)c2ccc(Cl)cc2)cc1`, the melting point was found to be 176 °C. In the case of `O=C1CC([N+](=O)[O-])([N+](=O)[O-])CO1` it was 100 to 102 °C.
